# Laboratory results published in US10167262B2, “Herbicidal substituted 3-arylpyrazoles” (FMC CORPORATION, priority 2014, dated 2019).
# Like-named read-outs stand apart in the source and are kept apart here.
# What was measured:
# Experiment in all cases: Test C pre-/postemergence greenhouse test, plant response rating 0-100
# Format in all cases: in vivo
# [1] = tested on: ragweed (common ragweed, Ambrosia elatior); conditions: Ambrosia artemisiifolia; for pest or weed control at 62 g/ha: 62 g ai/ha; for pest or weed control at 125 g/ha: 125 g ai/ha; for pest or weed control at 250 g/ha: 250 g ai/ha; for pest or weed control at 500 g/ha: 500 g ai/ha
# Outline: (§1)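 Pre-emergence soil and post-emergence foliar sprays were applied simultaneously to seeded loam–sand pots and to 1–4-leaf plants in peat medium; greenhouse holding lasted 13–15 days, then plants were scored visually from 0 (no effect) to 100 (complete control).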
# [2] = tested on: pigweed (Amaranthus retroflexus); conditions: Amaranthus retroflexus; for pest or weed control at 62 g/ha: 62 g ai/ha; for pest or weed control at 125 g/ha: 125 g ai/ha; for pest or weed control at 250 g/ha: 250 g ai/ha; for pest or weed control at 500 g/ha: 500 g ai/ha
# Outline: as §1
# [3] = tested on: yellow nutsedge (Cyperus esculentus); conditions: Cyperus; for pest or weed control at 62 g/ha: 62 g ai/ha; for pest or weed control at 125 g/ha: 125 g ai/ha; for pest or weed control at 250 g/ha: 250 g ai/ha; for pest or weed control at 500 g/ha: 500 g ai/ha
# Outline: as §1
# [4] = tested on: large (Lg) crabgrass (Digitaria sanguinalis); conditions: Digitaria sanguinalis; for pest or weed control at 62 g/ha: 62 g ai/ha; for pest or weed control at 125 g/ha: 125 g ai/ha; for pest or weed control at 250 g/ha: 250 g ai/ha; for pest or weed control at 500 g/ha: 500 g ai/ha
# Outline: as §1
# [5] = tested on: velvetleaf (Abutilon theophrasti); conditions: Abutilon theophrasti; for pest or weed control at 62 g/ha: 62 g ai/ha; for pest or weed control at 125 g/ha: 125 g ai/ha; for pest or weed control at 250 g/ha: 250 g ai/ha; for pest or weed control at 500 g/ha: 500 g ai/ha
# Outline: as §1
# [6] = tested on: johnsongrass (Sorghum halepense); conditions: Sorghum halepense; for pest or weed control at 62 g/ha: 62 g ai/ha; for pest or weed control at 125 g/ha: 125 g ai/ha; for pest or weed control at 250 g/ha: 250 g ai/ha; for pest or weed control at 500 g/ha: 500 g ai/ha
# Outline: as §1
# [7] = tested on: lambsquarters (Chenopodium album); conditions: Chenopodium album; for pest or weed control at 62 g/ha: 62 g ai/ha; for pest or weed control at 125 g/ha: 125 g ai/ha; for pest or weed control at 250 g/ha: 250 g ai/ha; for pest or weed control at 500 g/ha: 500 g ai/ha
# Outline: as §1
# [8] = tested on: galium (catchweed bedstraw, Galium aparine); conditions: Galium; for pest or weed control at 62 g/ha: 62 g ai/ha; for pest or weed control at 125 g/ha: 125 g ai/ha; for pest or weed control at 250 g/ha: 250 g ai/ha; for pest or weed control at 500 g/ha: 500 g ai/ha
# Outline: as §1
# [9] = tested on: morningglory (Ipomoea coccinea); conditions: Ipomoea; for pest or weed control at 62 g/ha: 62 g ai/ha; for pest or weed control at 125 g/ha: 125 g ai/ha; for pest or weed control at 250 g/ha: 250 g ai/ha; for pest or weed control at 500 g/ha: 500 g ai/ha
# Outline: as §1
# [10] = tested on: winter wheat (Triticum aestivum); conditions: Triticum aestivum; for plant injury at 62 g/ha: 62 g ai/ha; for plant injury at 125 g/ha: 125 g ai/ha; for plant injury at 250 g/ha: 250 g ai/ha; for plant injury at 500 g/ha: 500 g ai/ha
# Outline: as §1
# [11] = tested on: corn (Zea mays); conditions: Zea mays; for Corn plant response rating (crop injury, 0 = no effect, 100 = complete kill) at 250 g/ha: 250 g ai/ha; for Corn plant response rating (crop injury, 0 = no effect, 100 = complete kill) at 500 g/ha: 500 g ai/ha
# Outline: as §1
# [12] = tested on: blackgrass (Alopecurus myosuroides); conditions: Alopecurus myosuroides; for pest or weed control at 62 g/ha: 62 g ai/ha; for pest or weed control at 125 g/ha: 125 g ai/ha; for pest or weed control at 250 g/ha: 250 g ai/ha; for pest or weed control at 500 g/ha: 500 g ai/ha
# Outline: as §1
# [13] = post-emergence, Postemergence, read-out: Plant response rating (0 to 100), Ragweed
# [14] = post-emergence, Postemergence, scale 0 to 100
# [15] = pre-emergence, Preemergence, read-out: Plant response rating, Ragweed
# [16] = post-emergence, Postemergence, read-out: Plant response rating (0 to 100), Pigweed
# [17] = pre-emergence, Preemergence, read-out: Plant response rating, Pigweed
# [18] = post-emergence, Postemergence, read-out: Plant response rating (0 to 100), Nutsedge, Yellow
# [19] = pre-emergence, Preemergence, read-out: Plant response rating, Nutsedge, Yellow
# [20] = post-emergence, Postemergence, read-out: Plant response rating (0 to 100), Crabgrass, Large
# [21] = pre-emergence, Preemergence, read-out: Plant response rating, Crabgrass, Large
# [22] = post-emergence, Postemergence, read-out: Plant response rating (0 to 100), Velvetleaf
# [23] = pre-emergence, Preemergence, read-out: Plant response rating, Velvetleaf
# [24] = post-emergence, Postemergence, read-out: Plant response rating (0 to 100), Johnsongrass
# [25] = pre-emergence, Preemergence, read-out: Plant response rating, Johnsongrass
# [26] = post-emergence, Postemergence, read-out: Plant response rating (0 to 100), Lambsquarters
# [27] = pre-emergence, Preemergence, read-out: Plant response rating, Lambsquarters
# [28] = post-emergence, Postemergence, read-out: Plant response rating (0 to 100), Galium
# [29] = pre-emergence, Preemergence, read-out: Plant response rating, Galium
# [30] = post-emergence, Postemergence, read-out: Plant response rating (0 to 100), Morningglory
# [31] = pre-emergence, Preemergence, read-out: Plant response rating, Morningglory
# [32] = post-emergence, Postemergence, read-out: Plant response rating (0 to 100), Wheat
# [33] = pre-emergence, Preemergence, read-out: Plant response rating, Wheat
# [34] = pre-emergence, Preemergence, read-out: Plant response rating, Blackgrass
smiles,measurement,setting,value
"CCOC(OCC)(c1ccccc1)c1c[nH]nc1-c1cc(Cl)cc(Cl)c1 [Compound 14, 3-(3,5-dichlorophenyl)-4-(diethoxyphenylmethyl)-1H-pyrazole]",pest or weed control at 62 g/ha,[1]; [13],60%
same,pest or weed control at 125 g/ha,[1]; [13],70%
same,pest or weed control at 250 g/ha,[1]; [14],75%
same,pest or weed control at 500 g/ha,[1]; [14],80%
same,pest or weed control at 62 g/ha,[1]; [15],75%
same,pest or weed control at 125 g/ha,[1]; [15],100%
same,pest or weed control at 250 g/ha,"[1]; pre-emergence, Preemergence",100%
same,pest or weed control at 500 g/ha,"[1]; pre-emergence, Preemergence",100%
same,pest or weed control at 62 g/ha,[2]; [16],85%
same,pest or weed control at 125 g/ha,[2]; [16],98%
same,pest or weed control at 250 g/ha,[2]; [14],100%
same,pest or weed control at 500 g/ha,[2]; [14],100%
same,pest or weed control at 62 g/ha,[2]; [17],98%
same,pest or weed control at 125 g/ha,[2]; [17],100%
same,pest or weed control at 250 g/ha,"[2]; pre-emergence, Preemergence",100%
same,pest or weed control at 500 g/ha,"[2]; pre-emergence, Preemergence",100%
same,pest or weed control at 62 g/ha,[3]; [18],0%
same,pest or weed control at 125 g/ha,[3]; [18],0%
same,pest or weed control at 250 g/ha,[3]; [14],0%
same,pest or weed control at 500 g/ha,[3]; [14],0%
same,pest or weed control at 62 g/ha,[3]; [19],0%
same,pest or weed control at 125 g/ha,[3]; [19],0%
same,pest or weed control at 250 g/ha,"[3]; pre-emergence, Preemergence",0%
same,pest or weed control at 500 g/ha,"[3]; pre-emergence, Preemergence",0%
same,pest or weed control at 62 g/ha,[4]; [20],0%
same,pest or weed control at 125 g/ha,[4]; [20],0%
same,pest or weed control at 250 g/ha,[4]; [14],0%
same,pest or weed control at 500 g/ha,[4]; [14],0%
same,pest or weed control at 62 g/ha,[4]; [21],0%
same,pest or weed control at 125 g/ha,[4]; [21],0%
same,pest or weed control at 250 g/ha,"[4]; pre-emergence, Preemergence",0%
same,pest or weed control at 500 g/ha,"[4]; pre-emergence, Preemergence",0%
same,pest or weed control at 62 g/ha,[5]; [22],75%
same,pest or weed control at 125 g/ha,[5]; [22],75%
same,pest or weed control at 250 g/ha,[5]; [14],80%
same,pest or weed control at 500 g/ha,[5]; [14],85%
same,pest or weed control at 62 g/ha,[5]; [23],75%
same,pest or weed control at 125 g/ha,[5]; [23],50%
same,pest or weed control at 250 g/ha,"[5]; pre-emergence, Preemergence",85%
same,pest or weed control at 500 g/ha,"[5]; pre-emergence, Preemergence",98%
same,pest or weed control at 62 g/ha,[6]; [24],0%
same,pest or weed control at 125 g/ha,[6]; [24],0%
same,pest or weed control at 250 g/ha,[6]; [14],0%
same,pest or weed control at 500 g/ha,[6]; [14],0%
same,pest or weed control at 62 g/ha,[6]; [25],0%
same,pest or weed control at 125 g/ha,[6]; [25],0%
same,pest or weed control at 250 g/ha,"[6]; pre-emergence, Preemergence",0%
same,pest or weed control at 500 g/ha,"[6]; pre-emergence, Preemergence",0%
same,pest or weed control at 62 g/ha,[7]; [26],70%
same,pest or weed control at 125 g/ha,[7]; [26],95%
same,pest or weed control at 250 g/ha,[7]; [14],100%
same,pest or weed control at 500 g/ha,[7]; [14],100%
same,pest or weed control at 62 g/ha,[7]; [27],100%
same,pest or weed control at 125 g/ha,[7]; [27],100%
same,pest or weed control at 250 g/ha,"[7]; pre-emergence, Preemergence",100%
same,pest or weed control at 500 g/ha,"[7]; pre-emergence, Preemergence",100%
same,pest or weed control at 62 g/ha,[8]; [28],0%
same,pest or weed control at 125 g/ha,[8]; [28],30%
same,pest or weed control at 250 g/ha,[8]; [14],50%
same,pest or weed control at 500 g/ha,[8]; [14],45%
same,pest or weed control at 62 g/ha,[8]; [29],0%
same,pest or weed control at 125 g/ha,[8]; [29],60%
same,pest or weed control at 250 g/ha,"[8]; pre-emergence, Preemergence",80%
same,pest or weed control at 500 g/ha,"[8]; pre-emergence, Preemergence",0%
same,pest or weed control at 62 g/ha,[9]; [30],0%
same,pest or weed control at 125 g/ha,[9]; [30],0%
same,pest or weed control at 250 g/ha,[9]; [14],0%
same,pest or weed control at 500 g/ha,[9]; [14],5%
same,pest or weed control at 62 g/ha,[9]; [31],0%
same,pest or weed control at 125 g/ha,[9]; [31],0%
same,pest or weed control at 250 g/ha,"[9]; pre-emergence, Preemergence",0%
same,pest or weed control at 500 g/ha,"[9]; pre-emergence, Preemergence",0%
same,plant injury at 62 g/ha,[10]; [32],0%
same,plant injury at 125 g/ha,[10]; [32],0%
same,plant injury at 250 g/ha,[10]; [14],0%
same,plant injury at 500 g/ha,[10]; [14],5%
same,plant injury at 62 g/ha,[10]; [33],0%
same,plant injury at 125 g/ha,[10]; [33],0%
same,plant injury at 250 g/ha,"[10]; pre-emergence, Preemergence",0%
same,plant injury at 500 g/ha,"[10]; pre-emergence, Preemergence",0%
same,plant injury at 62 g/ha,"[11]; post-emergence, Postemergence, 62 g ai/ha",0%
same,plant injury at 125 g/ha,"[11]; post-emergence, Postemergence, 125 g ai/ha",0%
same,"Corn plant response rating (crop injury, 0 = no effect, 100 = complete kill) at 250 g/ha",[11]; [14],5%
same,"Corn plant response rating (crop injury, 0 = no effect, 100 = complete kill) at 500 g/ha",[11]; [14],5%
same,"Corn plant response rating (crop injury, 0 = no effect, 100 = complete kill) at 62 g/ha","[11]; pre-emergence, Preemergence, 62 g ai/ha",0%
same,"Corn plant response rating (crop injury, 0 = no effect, 100 = complete kill) at 125 g/ha","[11]; pre-emergence, Preemergence, 125 g ai/ha",0%
same,"Corn plant response rating (crop injury, 0 = no effect, 100 = complete kill) at 250 g/ha","[11]; pre-emergence, Preemergence",0%
same,"Corn plant response rating (crop injury, 0 = no effect, 100 = complete kill) at 500 g/ha","[11]; pre-emergence, Preemergence",0%
same,pest or weed control at 62 g/ha,"[12]; post-emergence, Postemergence, read-out: Plant response rating (0 to 100), Blackgrass",0%
same,pest or weed control at 125 g/ha,"[12]; post-emergence, Postemergence, scale 0 to 100, read-out: Plant response rating, Blackgrass",0%
same,pest or weed control at 250 g/ha,[12]; [14],0%
same,pest or weed control at 500 g/ha,[12]; [14],0%
same,pest or weed control at 62 g/ha,[12]; [34],50%
same,pest or weed control at 125 g/ha,[12]; [34],20%
same,pest or weed control at 250 g/ha,"[12]; pre-emergence, Preemergence",0%
same,pest or weed control at 500 g/ha,"[12]; pre-emergence, Preemergence",30%
